Data on three compounds can be found in article PMC5542777 (Bioorganic & medicinal chemistry letters, 2017).

Series [1] in a line: Brain penetration in mice. Type of series: in vivo. Particulars: for brain permeability / brain penetration: 5 mg/kg IP; for Kp at 60 min: mouse, brain and plasma, ip.
The nature of series [2]: Oral pharmacokinetics in mice. Type of series: in vivo. Particulars: oral gavage 50 mg/kg.

Regarding `Clc1cc(Br)cc(CN[C@H]2CCCN(c3nc4nc(Cl)ccc4[nH]3)C2)c1` [Compound 5b], the “brain permeability / brain penetration” value in series [1] (mice) is listed as “poor”. Moreover, the brain levels entry in series [1] (mice, 60 min after IP injection, 5 mg/kg) was “undetectable”.
As usually defined, the Kp is the ratio of the level in a tissue or fluid to that in plasma or blood. On to `CCOc1c(Br)cc(Br)cc1CN[C@H]1CCCN(c2nc3nc(Cl)ccc3[nH]2)C1` [Compound 5p], for which the Kp at 60 min in series [1] (5 mg/kg) stood at 0.044 ± 0.006.
For `CN(CCN[C@@H]1CCNc2c(Cl)cc(Cl)cc21)c1nc2nc(Cl)ccc2[nH]1` [Compound 13], the “plasma exposure” value in series [2] was “low plasma exposure”. The “brain permeability / brain penetration” value in series [1] (mice) is reported as “moderately good brain penetration”. In series [1] (5 mg/kg), the Kp at 60 min was determined as 0.191 ± 0.075.
